The text below walks through data of patent US20040229825A1, “Pharmaceutical composition for treatment of infection with drug resistant bacterium and disinfectant” (priority 2003, published 2004).

In brackets after ≈: the same amount, converted by molar mass. Like-named read-outs stand apart in the source and are kept apart here.

For experiment [1], the system named is MRSA. Kind of experiment: Antibacterial activity of flavonoids on MRSA (agar plate dilution method, MIC). It is filed as cell-based, Staphylococcus aureus. The note with it: flavonoid alone; for MIC: 20 h. The procedure: (§1) MRSA were employed as bacteria to be tested. The antibacterial activity was determined according to the agar plate dilution method defined by Japan Society of Chemotherapy (Chemotherapy 29(1), 76-79(1981)). The employed plate medium for the measurement of sensitivity was semisynthetic medium based on Mueller-Hinton Agar, and the bacteria solution for seeding was prepared by incubating the test bacterium in Mueller-Hinton Broth at 37° C. for 20 hours, followed by diluting in 0.85% saline to give 10^6 CFU/mL. The test samples were produced in two times-serial dilution method. To this plate medium for the measurement of sensitivity, was seeded a bacteria solution with a Micro Planter® (Sakuma Seisakusho). After incubating at 37° C. for 20 hours, a minimum inhibitory concentration (MIC) was determined. […] In addition, MIC50 indicates a concentration yielding the proliferation inhibitory effect in 50% of total number of MRSA strains, whilst MIC90 indicates a concentration yielding the proliferation inhibitory effect in 90% of total number of MRSA strains.

The test system of experiment [2] is MRSA. The experiment can be described thus: Enhancement of the antibacterial activity of methicillin by various flavonoids on MRSA. The note with it: 50 μg/mL of the named flavonoid added. The format is cell-based, Staphylococcus aureus. The procedure:
as §1
Antibacterial Activities of Methicillin on MRSA with 50 μg/mL of Various Flavonoids

For experiment [3], the system named is MRSA. The experiment can be described thus: Enhancement of the antibacterial activity of various antibiotics by flavone on MRSA. It is filed as cell-based, Staphylococcus aureus. The note with it: for MIC: Staphylococcus aureus, antibiotics alone; for MIC +flavone: addition of 50 μg/mL of flavone. The procedure: as §1
Antibacterial Activities of Various β-Lactam Antibiotics on MRSA with 50 μg/mL of Flavone

The subject of experiment [4] is penicillinase producing Staphylococcus aureus. Kind of experiment: Effects of flavone in combination with benzylpenicillin or methicillin on penicillinase producing Staphylococcus aureus. It is filed as cell-based. On the procedure: as §1
The effects of flavone in combination with benzylpenicillin or methicillin on penicillinase producing Staphylococcus aureus are shown in Table 4.
Effects of Flavone in Combination with Benzylpenicillin or Methicillin on Penicillinase Producing Staphylococcus aureus.

In experiment [5] the test system is MRSA infected mouse. Kind of experiment: Antibacterial activity on MRSA infected mouse (survival rate after 5 days). It is filed as in vivo. On the procedure:
MRSA was incubated with Brain-Heart Infusion medium at 37° C. for 18 hours, and then the bacteria were collected and washed, followed by resuspension in saline. The suspension was admixed in an aqueous 5% gastric mucin solution and the concentration was adjusted to a predetermined value. Then, 0.2 mL of the mixture was intraperitoneally administered to an ICR strain SPF mouse. At one hour after the infection, various concentrations of β-lactam agents and rutin (0.2 mL) was subcutaneously administered, and survival rate was analyzed after 5 days and thus the effectiveness was evaluated. In addition, the effectiveness by oral administration (0.2 mL) was evaluated and various concentrations of β-lactam agents and rutin (0.2 mL) were administered using a gastric probe 1 hour or 5 hours prior to the infection.

Where [6] appears, read: Staphylococcus aureus, MRSA 20 strains.
Where [7] appears, read: Staphylococcus aureus, MRSA 20 strains, read-out: MIC50.
The mark [8] stands for this setting: Staphylococcus aureus, MRSA 20 strains, read-out: MIC90.

Usually MIC50 stands for the lowest concentration that inhibits either 50% of growth or 50% of the strains tested, depending on the study. For orientation: MIC90 means the lowest concentration that inhibits either 90% of growth or 90% of the strains tested, depending on the study. In experiment [1] (MRSA 20 strains), `O=C1c2ccc(O)cc2OC(c2cc(O)c(O)c(O)c2)C1O` (stereo in doubt) [dihydrorobinetin] registered an MIC50 of 250 µg/mL (≈ 822 µM), an MIC90 of 250 µg/mL (≈ 822 µM) and an MIC range of 250 µg/mL (≈ 822 µM).

For orientation: MIC means the least concentration at which growth counts as inhibited. Consider `O=c1cc(-c2ccc(O)c(O)c2)oc2ccccc12` [3′,4′-dihydroxyflavone], for which, in experiment [1] (setting [6]), the MIC lay within 62.5 to 250 µg/mL (≈ 246 to 983 µM). The MIC50 in experiment [1] (setting [7]) is 125 µg/mL (≈ 492 µM). Further, the MIC90 in experiment [1] (setting [8]) was determined as 250 µg/mL (≈ 983 µM). In experiment [1], the “antibacterial activity on MRSA (in words)” value (shortened to “antibacterial activity”) is recorded as “potent antibacterial activity”.

With `O=c1cc(-c2ccccc2)oc2cc(O)c(O)cc12` [6,7-dihydroxyflavone], the MIC50 in experiment [1] (setting [7]) stood at 62.5 µg/mL (≈ 246 µM). The MIC90 in experiment [1] (setting [8]) came out at 125 µg/mL (≈ 492 µM). The “antibacterial activity” value in experiment [1] is on record as “potent antibacterial activity”.

As for `O=c1cc(-c2ccc(O)cc2)oc2cc(O)ccc12` [7,4′-dihydroxyflavone], the MIC in experiment [1] (setting [6]) was in the range of 125 to 500 µg/mL (≈ 492 to 1970 µM). In addition, the MIC50 in experiment [1] (setting [7]) came to 250 µg/mL (≈ 983 µM). Besides, in experiment [1] (setting [8]), the MIC90 was 500 µg/mL (≈ 1970 µM).

As to `O=c1cc(-c2ccccc2)oc2c(O)c(O)ccc12` [7,8-dihydroxyflavone], the MIC in experiment [1] (setting [6]) is 31.3 to 125 µg/mL (≈ 123 to 492 µM). Besides, the MIC50 in experiment [1] (setting [7]) came out at 62.5 µg/mL (≈ 246 µM). Moreover, in experiment [1] (setting [8]), the MIC90 turned out to be 125 µg/mL (≈ 492 µM). Moreover, the “antibacterial activity” value in experiment [1] was “potent antibacterial activity”.

On to `Oc1cc(O)c2c(c1)O[C@@H](c1cc(O)c(O)c(O)c1)[C@H](O)C2` [(−)-gallocatechin], for which the MIC of methicillin in experiment [2] amounted to 2 µg/mL.

On to `CC1(C)S[C@@H]2[C@H](NC(=O)Cc3ccccc3)C(=O)N2[C@H]1C(=O)O` [benzylpenicillin], for which the MIC in experiment [3] was found to be 64 µg/mL; in experiment [4] (+ flavone 50 μg/mL), 0.39 µg/mL; in experiment [4] (antibiotic alone), 1.56 µg/mL. Also, in experiment [3], the “MIC +flavone” value amounted to 32 µg/mL.

Compound `O=C(/C=C/c1ccc(O)c(O)c1)c1ccc(O)cc1O` [butein] showed an MIC in experiment [1] (setting [6]) of 125 to 250 µg/mL (≈ 459 to 918 µM). Also, in experiment [1] (setting [7]), the MIC50 was 250 µg/mL (≈ 918 µM). For the same compound, the MIC90 in experiment [1] (setting [8]) stood at 250 µg/mL (≈ 918 µM).

Consider `CC1(C)S[C@@H]2[C@H](NC(=O)C(C(=O)O)c3ccccc3)C(=O)N2[C@H]1C(=O)O` (some centres unmarked) [carbenicillin], for which, in experiment [3], the MIC is greater than 256 µg/mL and the “MIC +flavone” value came out at 4 µg/mL.

Take `CC(=O)OCC1=C(C(=O)O)N2C(=O)[C@@H](NC(=O)CSc3ccncc3)[C@H]2SC1` [cefapirin]: the MIC in experiment [3] came to 128 µg/mL. Moreover, in experiment [3], the “MIC +flavone” value is less than 0.016 µg/mL. Moreover, the survival rate is 20% in experiment [5] (antibiotic alone, 0.5 mg/mouse, after 5 days); 20% in experiment [5] (antibiotic alone, 1 mg/mouse, after 5 days); 20% in experiment [5] (antibiotic alone, 5 mg/mouse, after 5 days); 20% in experiment [5] (antibiotic alone, 10 mg/mouse, after 5 days); 40% in experiment [5] (antibiotic alone, 15 mg/mouse, after 5 days); 40% in experiment [5] (oral, antibiotic 10 mg/mouse with rutin 5 mg/mouse). The survival rate stood at 60% in experiment [5] (oral, antibiotic 10 mg/mouse with rutin 10 mg/mouse); 60% in experiment [5] (oral, antibiotic 15 mg/mouse with rutin 5 mg/mouse); 80% in experiment [5] (oral, antibiotic 15 mg/mouse with rutin 10 mg/mouse); 0% in experiment [5] (subcutaneous, antibiotic 10 mg/mouse with rutin 5 mg/mouse); 20% in experiment [5] (subcutaneous, antibiotic 10 mg/mouse with rutin 10 mg/mouse); 80% in experiment [5] (subcutaneous, antibiotic 15 mg/mouse with rutin 5 mg/mouse). In experiment [5] (subcutaneous, antibiotic 15 mg/mouse with rutin 10 mg/mouse), the survival rate is reported as 100%.

As to `CO/N=C(\C(=O)N[C@@H]1C(=O)N2C(C(=O)O)=C(COC(C)=O)CS[C@H]12)c1csc(N)n1` [cefotaxime], in experiment [3], the MIC was greater than 1020 µg/mL and the “MIC +flavone” value was 64 µg/mL.

Turning to `CO[C@@]1(NC(=O)Cc2cccs2)C(=O)N2C(C(=O)O)=C(COC(N)=O)CS[C@@H]21` [cefoxitin], in experiment [3], the MIC was 512 µg/mL and the “MIC +flavone” value worked out at 32 µg/mL.

`CC1=C(C(=O)O)N2C(=O)[C@@H](NC(=O)[C@H](N)C3=CCC=CC3)[C@H]2SC1` [cefradine]: in experiment [3], the MIC is greater than 256 µg/mL and the “MIC +flavone” value was found to be 1 µg/mL.

With `CO/N=C(\C(=O)N[C@@H]1C(=O)N2C(C(=O)O)=C(COC(N)=O)CS[C@H]12)c1ccco1` [cefuroxime], in experiment [3], the MIC was found to be 1020 µg/mL and the “MIC +flavone” value came out at 512 µg/mL.
